Legend:
[1] = tested on: EEG amplitude in anesthetized dogs; settings: dog, in vivo
[2] = tested on: seizure activity on the EEG; settings: dog, in vivo

For `C1CCc2nnnn2CC1` [pentylenetetrazole], the “EEG amplitude, left hemisphere (occipital frontal leads)” value [1] was 35.6 ± 8.0 μV, the “EEG amplitude, right hemisphere (occipital frontal leads)” value [1] was 31.5 ± 8.0 μV and the “increase in EEG amplitude” value [1] was 344%. For the same molecule, the “cumulative dose at which seizure activity was observed” value [2] was 11 to 41 mg/kg and the “dogs with seizure activity after pentylenetetrazole” value [2] was “Seizure activity was observed in all the dogs”.

Source: patent publication US5466700A (priority 1993, dated 1995)
